Biological target: T1, human m4 receptors (Homo sapiens, UniProt P08173)
T1 construct: expressed in transfected cells; host or cells: CHO K1
Test: Cyclic AMP accumulation in pertussis toxin-treated CHO m4 cells
Assay type: cell-based
Conditions: stimulation of cyclic AMP production in CHO-m4 cells, forskolin present
Method: Cyclic AMP Accumulation in Pertussis Toxin-Treated CHO m4 Cells.
CHO K1 cells transfected with human m4 receptors were grown to near confluency in T-150 flasks using Dulbecco's Modified Eagle Medium (DMEM) containing 10% fetal bovine serum. Cells were detached with 0.05% trypsin, […], and were suspended in medium containing 100 ng/ml pertussis toxin. Cells were plated at 30,000 cells per well into 96 well plates. Eighteen to twenty hours later the medium was removed and the cells were washed with serum-free medium. Attached cells were incubated at 37° C. for one hour after addition of […] of serum free DMEM containing 1 mM 3-isobutyl-1-methylxanthine and 1 mM forskolin plus or minus drugs being tested. Incubations were terminated with […] per well of serum free DMEM containing 0.3% triton-X-100. After stopping incubations the plates were allowed to sit for 20 minutes to extract cAMP and samples were then diluted 2.5-fold and were assayed using the scintillation proximity assay of Amersham (Arlington Heights, Ill).
Representative results from the M4 assay are as follows:
Stimulation of cyclic AMP production in CHO-m4cells.

T1 sequence (P08173 whole entry): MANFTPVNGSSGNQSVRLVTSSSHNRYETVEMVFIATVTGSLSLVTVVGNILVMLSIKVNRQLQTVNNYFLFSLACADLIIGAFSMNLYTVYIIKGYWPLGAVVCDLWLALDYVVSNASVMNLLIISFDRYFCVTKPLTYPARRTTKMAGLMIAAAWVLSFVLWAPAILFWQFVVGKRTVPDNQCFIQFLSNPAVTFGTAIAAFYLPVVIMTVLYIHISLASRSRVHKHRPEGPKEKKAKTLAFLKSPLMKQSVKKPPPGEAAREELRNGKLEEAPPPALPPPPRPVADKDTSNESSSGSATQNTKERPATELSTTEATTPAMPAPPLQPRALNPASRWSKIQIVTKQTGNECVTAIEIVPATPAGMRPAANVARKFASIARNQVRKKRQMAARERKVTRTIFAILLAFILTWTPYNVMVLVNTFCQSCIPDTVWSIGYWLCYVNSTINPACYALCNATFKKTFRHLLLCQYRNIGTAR

Row | Compound | % Maximum Stimulation Compared to Oxotremorine-M [%]
1 | CCCCc1ccc(C(=O)NC2c3cc(N=CN4CCCC4)ccc3CC2O)cc1 (stereo not drawn) [Compound 45] | <20
2 | O=C(NC1c2cc(N=CN3CCCC3)ccc2CC1O)c1c(Cl)cccc1Cl (stereo not drawn) [Compound 46] | 154
3 | O=C(NC1c2cc(N=CN3CCCC3)ccc2CC1O)c1c(Cl)cc(Cl)cc1Cl (stereo not drawn) [Compound 47] | <20
4 | CN(C)C=Nc1ccc2c(c1)C(NC(=O)c1ccccc1)C(O)C2 (stereo not drawn) [Compound 57] | 5
5 | CN(C)C=Nc1ccc2c(c1)C(NC(=O)c1cc(Cl)cc(Cl)c1)C(O)C2 (stereo not drawn) [Compound 58] | 74
6 | CCCCOc1ccc(C(=O)NC2c3cc(N=CN(C)C)ccc3CC2O)cc1 (stereo not drawn) [Compound 59] | 22
7 | CN(C)C=Nc1ccc2c(c1)C(NC(=O)c1cc(C(F)(F)F)cc(C(F)(F)F)c1)C(O)C2 (stereo not drawn) [Compound 60] | 100
8 | CN(C)C=Nc1ccc2c(c1)C(NC(=O)c1cccc(C#N)c1)C(O)C2 (stereo not drawn) [Compound 61] | 39
9 | CN(C)C=Nc1ccc2c(c1)C(NC(=O)C1CCCC1)C(O)C2 (stereo not drawn) [Compound 62] | 27
10 | CN(C)C=Nc1ccc2c(c1)C(NC(=O)c1ccc3ccccc3c1)C(O)C2 (stereo not drawn) [Compound 63] | 13
11 | CN(C)C=Nc1ccc2c(c1)C(NC(=O)c1cc(F)cc(C(F)(F)F)c1)C(O)C2 (stereo not drawn) [Compound 64] | 52
12 | CN(C)C=Nc1ccc2c(c1)C(NC(=O)c1cc(F)c(F)c(F)c1)C(O)C2 (stereo not drawn) [Compound 65] | 30
13 | CN(C)C=Nc1ccc2c(c1)C(NC(=O)C(F)(F)F)C(O)C2 (stereo not drawn) [Compound 66] | 0
14 | CCc1ccc(C(=O)NC2c3cc(N=CN(C)C)ccc3CC2O)cc1 (stereo not drawn) [Compound 67] | 7
15 | CN(C)C=Nc1ccc2c(c1)C(NC(=O)c1sccc1Cl)C(O)C2 (stereo not drawn) [Compound 68] | 0
16 | CN(C)C=Nc1ccc2c(c1)C(NC(=O)c1cc3ccccc3s1)C(O)C2 (stereo not drawn) [Compound 69] | 14
17 | CCCCc1ccc(C(=O)NC2c3cc(N=CN(C)C)ccc3CC2O)cc1 (stereo not drawn) [Compound 70] | 18
18 | CN(C)C=Nc1ccc2c(c1)C(NC(=O)c1cccc3ccccc13)C(O)C2 (stereo not drawn) [Compound 71] | 95
19 | CN(C)C=Nc1ccc2c(c1)C(NS(=O)(=O)c1ccc(Cl)c(Cl)c1)C(O)C2 (stereo not drawn) [Compound 72] | 4
20 | CN(C)C=Nc1ccc2c(c1)C(NC(=O)c1cccnc1Cl)C(O)C2 (stereo not drawn) [Compound 73] | 11
21 | CN(C)C=Nc1ccc2c(c1)C(NC(=O)c1ccc(Cl)nc1)C(O)C2 (stereo not drawn) [Compound 74] | 8
22 | CN(C)C=Nc1ccc2c(c1)C(NC(=O)c1ccc(C(F)(F)F)cc1)C(O)C2 (stereo not drawn) [Compound 75] | 6
23 | CC(=Nc1ccc2c(c1)C(NC(=O)c1ccc(Cl)c(Cl)c1)C(O)C2)N(C)C (stereo not drawn) [Compound 76] | 130
24 | O=C(NC1c2cc(N=CN3CCCCC3)ccc2CC1O)c1ccc(Cl)c(Cl)c1 (stereo not drawn) [Compound 77] | 214
25 | O=C(NC1c2cc(N=CN3CCCCC3)ccc2CC1O)c1cccc(Cl)c1Cl (stereo not drawn) [Compound 88] | 52
26 | O=C(NC1c2cc(N=CN3CCCCC3)ccc2CC1O)c1cc(Cl)cc(Cl)c1 (stereo not drawn) [Compound 97] | 36
27 | O=C(NC1c2cc(N=CN3CCCCC3)ccc2CC1O)c1cc(F)cc(F)c1 (stereo not drawn) [Compound 98] | 73

Biological target: muscarinic receptor
Test: not given
Conditions: first of three sites (high affinity); read-out: affinity of site labeled by 3H-Oxo; cited from earlier work

Row | Compound | Kd [nM]
28 | C[N+](C)(C)CC#CCN1CCCC1=O [^3H-Oxo, ^3H-Oxotremorine-M] | 1.8

Same assay, conditions: second of three sites (medium affinity); read-out: affinity of site labeled by 3H-Oxo; cited from earlier work

Row | Compound | Kd [nM]
29 | C[N+](C)(C)CC#CCN1CCCC1=O [^3H-Oxo, ^3H-Oxotremorine-M] | 20

Same assay, conditions: third of three sites (low affinity); read-out: affinity of site labeled by 3H-Oxo; cited from earlier work

Row | Compound | Kd [nM]
30 | C[N+](C)(C)CC#CCN1CCCC1=O [^3H-Oxo, ^3H-Oxotremorine-M] | 3000

From patent US6429317B1, “Indane derivatives for antipsychotic compositions” (priority 1996, dated 2002)
